One series can be described thus: Solubility (pH 7.4; PBS). The class given is physicochemical. As to conditions: aqueous buffer.
The target of another series is T1, TrkB (Homo sapiens, UniProt Q16620).
T1 construct: expressed in transfected cells; host or cells: human SH-SY5Y cells (BR6/Br6) and T48 cells
The series is described as follows: Pro-survival MTT assay after staurosporine-induced apoptosis in BR6 and T48 cells. The class given is cell-based. The settings on record: STS 100 nM, 24 h, in words, relative to CF3CN. How it is done:
FIG. 1b illustrates EC50 values of CF3CN and derivatives thereof. BR6 and T48 cells are treated with staurosporine (STS) (100 nM) and TrkB agonists. CF3CN and compounds #1-4 are added in a dose-dependent manner at concentrations of 0, 5, 10, 50, 100, 500, and 1,000 nM. After 24 h, an MTT assay is performed, and EC50 values are calculated using Prism software (n=3; data are represented by mean±standard deviation (SD)).
The pro-survival effects of four derivatives were quantitatively analyzed in human SH-SY5Y cells and T48 cells stably transfected with the TrkB. […] As PLCγ1 bound with a p-Y816 residue on the TrkB receptor and was subsequently tyrosine-phosphorylated by active TrkB, a tyrosine phosphorylation signal was also monitored in this example (FIG. 1c).
Background: Tetrazolium dyes change colour on reduction, which living cells bring about.

Series [1] is described as follows: Stability in plasma (human). The class given is in vitro ADME. The settings on record: plasma, read-out: Stability-Plasma T1/2.

Converted amounts (≈) assume the structure as drawn.

In general, solubility refers to the concentration that dissolves in the medium under given conditions. Higher therefore signals a readily soluble substance.

T1 sequence (Q16620 32-822, species assumed): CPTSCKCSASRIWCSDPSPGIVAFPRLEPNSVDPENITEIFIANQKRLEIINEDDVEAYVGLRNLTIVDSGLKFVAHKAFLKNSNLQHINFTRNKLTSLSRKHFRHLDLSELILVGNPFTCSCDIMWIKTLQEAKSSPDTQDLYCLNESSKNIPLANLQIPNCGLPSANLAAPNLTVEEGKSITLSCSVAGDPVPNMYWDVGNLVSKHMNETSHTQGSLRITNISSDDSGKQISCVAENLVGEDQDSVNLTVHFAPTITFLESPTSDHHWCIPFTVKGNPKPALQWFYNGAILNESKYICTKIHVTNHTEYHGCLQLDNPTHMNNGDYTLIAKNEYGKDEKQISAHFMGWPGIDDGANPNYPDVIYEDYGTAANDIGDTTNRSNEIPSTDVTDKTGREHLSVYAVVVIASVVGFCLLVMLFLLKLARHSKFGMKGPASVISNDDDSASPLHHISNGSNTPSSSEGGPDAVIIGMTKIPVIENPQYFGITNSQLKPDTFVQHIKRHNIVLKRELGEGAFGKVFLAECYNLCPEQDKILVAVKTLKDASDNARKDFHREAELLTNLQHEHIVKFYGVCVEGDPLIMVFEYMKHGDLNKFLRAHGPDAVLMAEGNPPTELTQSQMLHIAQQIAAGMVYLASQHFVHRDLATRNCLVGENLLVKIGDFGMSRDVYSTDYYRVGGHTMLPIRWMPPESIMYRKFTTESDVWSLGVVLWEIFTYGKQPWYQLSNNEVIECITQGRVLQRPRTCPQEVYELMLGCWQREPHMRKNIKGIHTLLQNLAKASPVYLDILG

`CNCc1ccc(-c2cc(=O)c3ccc4nc(C(F)(F)F)[nH]c4c3o2)cc1` [#2] registered a solubility in “Solubility (pH 7.4; PBS)” of 50 µM (≈ 18.7 µg/mL). At TrkB, the “pro-survival EC50” value is listed as “comparable”. Besides, the half-life in series [1] was over 8 h.

(Values after US20260041670A1, “DRUGS FOR PREVENTING AND/OR TREATING ALZHEIMER'S DISEASE” (SHENZHEN UNIVERSITY OF ADVANCED TECHNOLOGY, priority 2023, published 2026).)
